Molecules are shown by their SMILES.

What all share (format): cell-based, mouse
One experiment relates to NLRP3 inflammasome. Description: NLRP3 inflammasome activation in LPS-primed BMDM. The conditions noted are these: for restoration of Casp1 activation and IL-1β secretion: metformin treated and ATP-stimulated macrophages, DMNQ 20 μM 16 hrs, MitoParaquat 5 μM 1 hr.
For experiment [1], the system named is BMDM. Description: Mitochondrial function in BMDM (TMRM, MitoSOX, cellular ATP). Conditions: for mtROS: metformin treated and ATP-stimulated macrophages, DMNQ 20 μM 16 hrs, MitoParaquat 5 μM 1 hr.
The test system of another experiment is mtDNA. Description: mtDNA synthesis and cytosolic Ox-mtDNA in BMDM. The conditions noted are these: for restoration of cytoplasmic Ox-mtDNA or mtDNA synthesis: metformin treated macrophages, DMNQ 20 μM 16 hrs, MitoParaquat 5 μM 1 hr. As for the experimental part:
To image mtDNA synthesis, BMDM were stimulated with LPS ([…]) for 4 hrs in the presence of 10 μM EdU. Cells were then washed twice with sterile PBS and fixed in 4% PFA for 15 min followed by permeabilization with 0.02% Triton X-100 for 10 min. EdU staining was performed using a Click-iT EdU Microplate Assay Kit (Thermo Fisher Scientific). In brief, BMDMs were postfixed in EdU fixative for 5 min, and equal volumes of the EdU reaction cocktail, which was prepared immediately before use, were added to each chamber and left overnight. Primary antibody against the mitochondrial marker Atp5b was included in the EdU reaction cocktail. The next day, the BMDM were washed three times with PBS followed by incubation with secondary Alexa antibodies from Life Technologies or Jackson Immuno Research Laboratories. DAPI was used for nuclear counterstaining.
Total DNA was isolated using Allprep DNA/RNA Mini Kit (catalogue 80204, Qiagen) according to manufacturer's instructions. mtDNA was quantified by qPCR using primers specific for the mitochondrial D-loop region, cytochrome c oxidase (COX) or a specific region of mtDNA that is not inserted into nuclear DNA (non-NUMT) (Zhong et al., 2018). Nuclear DNA encoding Teri, 18S ribosomal RNA and B2m was used for normalization.
Cellular fractionation was performed using Mitochondrial Isolation kit (89874, ThermoScientific) according to manufacturer's instructions. Cytosolic mtDNA was analyzed as described (Nakahira et al., 2011). For the measurement of Ox-mtDNA, mtDNA was first purified using Allprep DNA/RNA mini kit (Qiagen) from the cytosolic fraction of BMDM as described above. The 8-OH-dG content of the mtDNA was then quantified using an 8-OHdG quantification kit (ab201734), per manufacturer's instructions.

The subject of experiment [2] is BMDM. The experiment in a line: Q-PCR quantitation of cytokine mRNAs in LPS-stimulated BMDM. The conditions noted are these: BMDM pretreated with SB202190 or SP600125 for 16 h, LPS. More on the design: Il6 mRNA induction: dose or concentration left out as unconfirmed. As for the experimental part: RNA was extracted using AllPrep DNA/RNA Mini kit, and cDNA was synthesized using SuperScript™ VILO™ cDNA Synthesis Kit. mRNA expression was determined by QPCR in a CFX96 thermal cycler (Biorad) as described (Zhong et al., 2016). Data are presented in arbitrary units and calculated by the 2^(−ΔΔCT) method. Primer sequences were obtained from the NIH qPrimerDepot (http://mouseprimerdepot.nci.nih.gov) and provided by Integrated DNA technologies.

In experiment [3] the test system is BMDM. Description: Cytokine secretion by LPS-stimulated BMDM (ELISA). An excerpt: Paired antibodies (capture and detection) and standard recombinant mouse IL-1β (R&D Systems), and TNF and IL-6 (eBioscience) were used to determine mouse cytokine concentrations according to manufacturer's instructions.
On the technique in general: ELISA stands for enzyme-linked immunosorbent assay.

With `C[n+]1ccc(-c2cc[n+](CCCCCCCCCC[P+](c3ccccc3)(c3ccccc3)c3ccccc3)cc2)cc1.[I-].[I-].[I-]` [mitoParaquat], the “restoration of Casp1 activation and IL-1β secretion” value in the experiment on NLRP3 inflammasome was “neither one restored”. The mtROS entry in the experiment on BMDM [1] is on record as “increased”. In addition, the “restoration of cytoplasmic Ox-mtDNA or mtDNA synthesis” value in the experiment with mtDNA was “neither parameter was restored”.
Regarding `COC1=C(OC)C(=O)c2ccccc2C1=O` [DMNQ, 2,3-dimethoxy-1,4-naphtoquinone], the “restoration of Casp1 activation and IL-1β secretion” value with NLRP3 inflammasome is reported as “neither one restored”. Moreover, the mtROS result in the experiment on BMDM [1] was “increased”. The “restoration of cytoplasmic Ox-mtDNA or mtDNA synthesis” value in the experiment with mtDNA is listed as “neither parameter was restored”.
`Oc1ccc(-c2nc(-c3ccncc3)c(-c3ccc(F)cc3)[nH]2)cc1` [SB202190]: the “Il6 mRNA induction” value in the experiment with BMDM [2] is “blocked”. Also, in the experiment on BMDM [3] (BMDM pretreated with SB202190 or SP600125 for 16 h, LPS), the IL-6 secretion result is “blocked”.
For the compound `Cc1nc(-c2nc(-c3ccc(OC(F)(F)F)cc3)no2)nn1Cc1cccc(N2CCC(S(C)(=O)=O)CC2)c1` [IACS-010759], the “IL-1β production and Casp1 and GSMDM cleavage” value in the experiment with NLRP3 inflammasome (LPS-primed macrophages with NLRP3 activators, IACS-010759 20 μM 16 hrs) is “inhibited”. Further, the “response to nigericin compared with other activators” value with NLRP3 inflammasome (LPS-primed macrophages, IACS-010759 20 μM 16 hrs) is recorded as “not as strongly inhibited”. The ROS production entry in the experiment on BMDM [1] (BMDM, IACS-010759 20 μM 16 hrs, MitoSOX) was “enhanced”. Besides, in the experiment with mtDNA (LPS-primed BMDM, IACS-010759 16 hrs), the mtDNA synthesis result is “inhibited”. Besides, in the experiment with BMDM [3] (BMDM, IACS-010759 20 μM 16 hrs), the IL-6 secretion result is on record as “modest inhibition” and the TNF secretion entry is given as “no effect”.
